Results as given in US20220257698A1, “ANGIOTENSIN TYPE 2 (AT2) RECEPTOR AGONISTS FOR USE IN THE TREATMENT OF CANCER” (LANTHIOPEP B.V., priority 2019, published 2022).

How the values were obtained:
Assay type in all cases: in vivo, cd1 nu/nu mice (human GBM cell line)
U87MG glioblastoma CDX [1] = experiment: Subcutaneous U87MG glioblastoma CDX: tumor weight and time of tumor progression; details: for tumor weight [%]: relative to vehicle = 100
Description: Effects of KcAng(1-7) were evaluated in vivo in a subcutaneous GBM xenograft model in nude mice. Insurgence of neurologic phenomena and differences in the survival rates were evaluated. Human GBM cell lines U87MG and U251MG were used. Cell lines were grown in DMEM nutrient mixture supplemented with 10% fetal bovine serum, 1% penicillin/streptomycin, and 25 mM HEPES buffer. All cell lines were cultured at 37° C. in a humidified atmosphere consisting of 5% CO2 and 95% air. Medium was changed every 2 days and the cell morphology was evaluated under microscope daily.
Six-week-old male athymic nude mice (age 5-7 weeks) were housed with free access to food and water in a temperature-controlled room. Each group is represented by 10 xenograft cd1 nu/nu mice. The mice were injected s.c. in the right distal hind limb with one million of cultured human tumor cell lines suspended in 0.15 mL of 2:1 solution of PBS/Matrigel (Matrigel BD Biosciences). Xenografts were measured every four days with a digital caliper in two perpendicular dimensions. Tumor volume was calculated according to the following formula:
Tumor volume=(tumor width)×(tumor width)×(tumor length)÷2
At the end of experiments, mice were euthanized and tumors removed. Weight loss or other signs of distress such as hunched posture were checked during and after treatments.
Efficacy of treatment was evaluated by: (1) the size of tumors (vehicle control and treated), (2) the relative weight at the end of experiment, and (3) the indirect evaluation of angiogenesis by determining hemoglobin levels.
In vivo tumor response to treatment was evaluated using the following parameters: (i) Complete response (CR): defined as the disappearance of a measurable lesion, (ii) Partial response (PR): defined as a reduction of greater than 50% of the sum of the products of the cross-sectional diameters of the measurable lesion, (iii) Stable disease (SD): defined as a reduction of less than 50% or an increase of less than 25% in the sum of the products of the cross-sectional diameters of the measurable lesions, (iv) Tumor progression (TP): defined as an increase of greater than […] in the sum of the products of the cross-sectional diameters of the measured lesion, (v) Time to progression (TTP) defining the tumor growth delay. Tumor progression was calculated through the analysis of bioluminescence imaging (BLI) photon counts and when possible through the analyses of tumor volumes calculated by magnetic resonance imaging (MRI), (vi) Disease free survival (DFS) is the time elapsed between the time point at which no luciferase activity is detectable anymore and the death of the animal, (vii) Overall survival (OS) is the time elapsed between tumor inoculation and death of the animal. […] Luciferase transfected cells were used for bioluminescence evaluations.
Data are presented as mean and standard error of the mean (SEM) or standard deviation (SD). Statistical comparisons between control and treated groups were established by carrying out the Kruskal-Wallis test (a nonparametric one-way analysis of variance) or the Mann-Whitney test (in the case of two groups). The level of significance was corrected by multiplying the P value by the number of comparisons performed (n) according to […] correction. TP, TTP and DFS were analyzed by Kaplan-Meier curves and Gehan's generalized Wilcoxon test. All statistical analyses were undertaken using SPSS 10.0.
Mice with U87MG cell CDX were randomized at day 0. KcAng(1-7) was injected daily subcutaneously (0.2 μg/kg) starting at day 0 until the (ethical) endpoint maximally at day 42. TMZ was administered at 16 mg/kg during 5 consecutive days, that is from […]. Volumetric evaluation of the tumor was performed every 4 days and tumor weight was measured at the end of the experiment.
Synergism was determined using the methods described in Clarke et al. Breast Cancer Research and Treatment 46:255-278 (1997).
Mice with U87MG cell CDX were randomized at day 0. […]

U251MG glioblastoma CDX [2] = experiment: Tumor hemoglobin level (indirect angiogenesis) in U251MG CDX; details: KcAng(1-7) 1 μg/kg/d, Losartan 20 mg/kg/d, or both
Description: Efficacy of treatment was evaluated by: […] In brief, tumors were homogenized in double-distilled water. Eighty microliters of homogenates were mixed with 1 mL of Drabkin's solution and incubated for 15 min at room temperature. After centrifugation at 400×g for 5 min, the supernatants were subjected to absorbance measurement at 540 nm. The absorption, which is proportional to hemoglobin concentration, was divided by tumor weight. Effect of KcAng(1-7) and Losartan against heterotopic U251MG cell culture-based xenografts (CDX) in mice. Animals were treated either with vehicle, treated with 20 mg/kg/d Losartan, treated with 1 μ[…](1-7) or treated with a combination of KcAng(1-7) and with Losartan.

U251MG glioblastoma CDX [3] = experiment: Subcutaneous U251MG glioblastoma CDX: time of tumor progression; details: KcAng(1-7) 1 μg/kg/d, Losartan 20 mg/kg/d, or both
Description: Effects of KcAng(1-7) were evaluated in vivo in a subcutaneous GBM xenograft model in nude mice. Insurgence of neurologic phenomena and differences in the survival rates were evaluated. Human GBM cell lines U87MG and U251MG were used. Cell lines were grown in DMEM nutrient mixture supplemented with 10% fetal bovine serum, 1% penicillin/streptomycin, and 25 mM HEPES buffer. All cell lines were cultured at 37° C. in a humidified atmosphere consisting of 5% CO2 and 95% air. Medium was changed every 2 days and the cell morphology was evaluated under microscope daily. Six-week-old male athymic nude mice (age 5-7 weeks) were housed with free access to food and water in a temperature-controlled room. Each group is represented by 10 xenograft cd1 nu/nu mice. […] Xenografts were measured every four days with a digital caliper in two perpendicular dimensions. Tumor volume was calculated according to the following formula: In vivo tumor response to treatment was evaluated using the following parameters: […] […] TP, TTP and DFS were analyzed by Kaplan-Meier curves and Gehan's generalized Wilcoxon test. […]

U87MG glioblastoma CDX [4] = experiment: Tumor hemoglobin level (indirect angiogenesis) in U87MG CDX; details: KcAng(1-7) 1 μg/kg/d, Losartan 20 mg/kg/d, or both
Description: Efficacy of treatment was evaluated by: […] Mice with U87MG cell CDX were randomized at day 0. KcAng(1-7) was injected subcutaneously (1 μg/kg) on a daily basis. Losartan was administered intraperitoneal at 20 mg/kg/day. […] In brief, tumors were homogenized in double-distilled water. Eighty microliters of homogenates were mixed with 1 mL of Drabkin's solution and incubated for 15 min at room temperature. After centrifugation at 400×g for 5 min, the supernatants were subjected to absorbance measurement at 540 nm. The absorption, which is proportional to hemoglobin concentration, was divided by tumor weight.

CCCCc1nc(Cl)c(CO)n1Cc1ccc(-c2ccccc2-c2nn[nH]n2)cc1 [Losartan, reference compound]
Time of tumor progression - TTP, mean (days ± SEM) (U87MG glioblastoma CDX [1]; KcAng(1-7) 1 μg/kg/d s.c., Losartan 20 mg/kg/d i.p., or both): 13.0 ± 0.6 days
Tumor weight, mean (mg ± SEM) (U87MG glioblastoma CDX [1]; KcAng(1-7) 1 μg/kg/d s.c., Losartan 20 mg/kg/day i.p., or both): 830 ± 57 mg
tumor weight [%] (U87MG glioblastoma CDX [1]; KcAng(1-7) 1 μg/kg/d, Losartan 20 mg/kg/d, or both): 79.8%
Tumor hemoglobin level, mean (± SEM) (U251MG glioblastoma CDX [2]): 32.1 ± 3.1 mg Hb/g of tissue
Time of tumor progression - TTP, mean (days ± SEM) (U251MG glioblastoma CDX [3]): 10.6 ± 0.6 days
Tumor hemoglobin level, mean (± SEM) (U87MG glioblastoma CDX [4]): 15.2 ± 1.0 mg hemoglobin/g of tissue

Cn1nnc2c(C(N)=O)ncn2c1=O [Temozolomide, temozolomide, reference compound]
Time of tumor progression - TTP, mean (days ± SD) (U87MG glioblastoma CDX [1]; KcAng(1-7) 0.2 μg/kg/d s.c., TMZ 16 mg/kg for 5 days, or both): 17.00 ± 0.54 days
Tumor weight, mean (mg ± SD) (U87MG glioblastoma CDX [1]; end of experiment, KcAng(1-7) 0.2 μg/kg/d s.c., TMZ 16 mg/kg for 5 days, or both): 445 ± 28 mg
tumor weight [%] (U87MG glioblastoma CDX [1]; KcAng(1-7) 0.2 μg/kg/d, TMZ 16 mg/kg, or both): 42.8%
